How the values were obtained:
[1] = system: 9L glial tumor cells mixed with PA317 fibroblasts expressing HSV-tk; assay: GCV tumor toxicity, co-injected tumor cells and HSV-tk PA317 fibroblasts (Example 1); assay type: in vivo, athymic BALB/C mice; settings: GCV 25 mg/kg BID 7 days; tumors removed 14 days after start of GCV; 9L (high coupling) vs C6 (low coupling); FIG. 3
Protocol: The HSV-tk gene was stably cloned into a PA/317 fibroblasts as described in Mol. Cell. Biol. 6:2895-2902 (1986) and New Eng. J. Med. 232:570-578 (1990). Athymic (immune-incompetent) BALB/C mice were injected subcutaneously with mixtures of: 1) 1×10^7 tumor cells known to have either high (9L glial tumor cells) or low (C6 glial tumor cells) levels of gap junction mediated intercellular transport, and 2) 1×10^7 immortalized mouse fibroblasts (PA317 cells) engineered to express HSV-tk. The mixtures of inoculated cells were allowed to grow into tumors over a period of 7-14 days (the time for detectable tumor formation varied depending on the identity and number of injected cells). The tumor-bearing animals were then treated for 7 days with GCV (25 mg/kg, BID) or with phosphate buffeted saline (PBS). Tumor size was periodically monitored.
14 days following the initiation of GCV treatment the tumors were removed. FIG. 3 summarizes the average weight of tumors following their removal. […] Thus, tumor toxicity was greater in tumors with higher levels of gap junction mediated intercellular transport.

9L glial tumor cells = assay: GCV therapy after injecting HSV-tk+ PA317 fibroblasts into pre-existing tumors (Example 2); assay type: in vivo, athymic mice; settings: GCV 25 mg/kg BID 7 days from 24 h after fibroblast injection; tumors weighed 14 days after start; FIG. 4
Protocol: 5 athymic (immuno-incompetent) mice were injected subcutaneously with 1×10^7 tumor cells known to have either high (9L glial tumor cells) or low (C6 glial tumor cells) levels of gap junction mediated intercellular transport. 1×10^7 HSV-tk^+ fibroblasts (PA317 cells) were injected into the center of tumors that were formed. GCV therapy (25 mg/kg, BID) was commenced 24 hours later and continued for 7 days. 14 days following the initiation of GCV treatment the tumors were removed and weighed.
These findings indicate the importance of gap junction mediated transport for the bystander killing of tumor cells.

[2] = system: 9L tumor cells mixed with HSV-tk+ fibroblasts expressing connexin43; assay: GCV treatment of 9L tumors with HSV-tk+ fibroblasts expressing connexin43 (Example 4); assay type: in vivo, athymic mice
Protocol: (§1) 5 athymic (immuno-incompetent) mice were injected subcutaneously with mixtures of 1×10^7 9L tumor cells and either immortalized connexin43^- mouse fibroblasts engineered to express HSV-tk (5 mice) or immortalized mouse fibroblasts from normal mice which express connexin 43 and had also been engineered to express HSV-tk (5 mice). The inoculated cells were allowed to grow into tumors. The tumor-bearing animals were treated with GCV (25 mg/kg) for 7 days. Tumor size was monitored and 14 days following the initiation of GCV treatment the tumors were removed. In a parallel experiment, animals injected with a mixture of 1×10^79L tumor cells and with immortalized connexin43^- mouse fibroblasts engineered to express HSV-tk were mock-treated with sham injections of phosphate buffeted saline (PBS) lacking GCV.
Of the 5 animals with tumors consisting of 9L cells and HSV-tk^+ fibroblasts expressing connexin43, only 3 animals still had detectable tumors when examined 7 days after the completion of GCV therapy. […] A matched control group of 5 animals which received sham injections of phosphate buffeted saline (PBS) instead of GCV all had tumors 7 days after the completion of this "sham treatment".

[3] = system: 9L tumor cells mixed with HSV-tk+ connexin43- fibroblasts; assay: GCV treatment of 9L tumors with HSV-tk+ connexin43- fibroblasts (Example 4); assay type: in vivo, athymic mice
Protocol: as §1
Two other groups of 5 animals inoculated with mixtures of 9L cells and HSV-tk^+ fibroblasts derived from cells lacking any connexin43 genes were identically treated.

Nc1nc(O)c2ncn(COC(CO)CO)c2n1 [GCV, Ganciclovir]
tumor size (average weight of tumors) versus C6 tumors treated with GCV [1]: significantly smaller | effect of GCV treatment on tumor weight, 9L versus C6 tumors (9L glial tumor cells): greater in 9L cells | animals with detectable tumors (of 5) ([2]; 7 days after completion of GCV therapy, 5 animals in group): 3 animals | average tumor weight ([2]; GCV 25 mg/kg 7 days, 7 days after completion of GCV therapy, PBS sham control 4.35 g): 0.63 g | therapeutic effect of GCV administration against tumors ([2]; GCV 25 mg/kg 7 days, fibroblasts with normal connexin 43 genes, FIG. 6): highly therapeutic effect | therapeutic effect of GCV administration against tumors ([3]; GCV 25 mg/kg 7 days, fibroblasts with connexin genes deleted, FIG. 6): not effective | animals with tumors (of 5) ([3]; after 7 days of GCV treatment, 5 animals in group): 5 animals | average tumor weight ([3]; after 7 days of GCV treatment, group without GCV 5.68 g): 5.43 g

— US6149904A, “Method for inhibiting tumor cell growth by administering to tumor cells expressing a nucleic acid encoding a connexin and a pro-drug” (The Regents of the University of California, priority 1997, dated 2000)
